# Results published in patent US5270322A, “Imidazo[1,2-a]pyridines, pharmaceutical compositions containing these compounds and processes for preparing them” (Dr. Karl Thomae GmbH, priority 1992, dated 1993).
# Target: T1, Angiotensin II-Receptor (Rattus norvegicus, UniProt P25095)
# T1 construct: The tissue (rats lung) is homogenised in Tris-buffer; from tissue; host or cells: rat lung homogenate
# T1 sequence (P25095 1-359): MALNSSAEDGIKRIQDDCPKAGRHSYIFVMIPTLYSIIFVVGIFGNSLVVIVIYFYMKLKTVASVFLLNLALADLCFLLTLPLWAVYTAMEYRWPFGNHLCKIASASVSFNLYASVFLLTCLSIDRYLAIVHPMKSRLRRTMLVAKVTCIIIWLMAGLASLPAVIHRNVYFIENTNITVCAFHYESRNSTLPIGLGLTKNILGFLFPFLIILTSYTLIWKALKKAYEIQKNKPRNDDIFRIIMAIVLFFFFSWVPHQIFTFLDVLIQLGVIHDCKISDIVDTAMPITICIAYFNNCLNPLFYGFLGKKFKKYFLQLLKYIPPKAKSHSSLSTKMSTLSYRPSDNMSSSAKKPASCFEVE
# Experiment: Angiotensin II-Receptor Bonding
# Type: binding
# Settings: rats lung homogenate; 50 pM [125I]-angiotensin II; 60 minutes at 37° C.; pH 7.40
# Procedure: Description of Method: Angiotensin II-Receptor Bonding
# The tissue (rats lung) is homogenised in Tris-buffer (50 mMol Tris, 150 mMol NaCl, 5 mMol EDTA, pH 7.40) and centrifuged twice for 20 minutes at 20,000×g. The finished pellets are resuspended in incubating buffer [, (50 mMol Tris, 5 mMol MgC12, 0.2% BSA, pH 7.40) 1:75, based on the moist weight of the tissue. Each 0.1 ml of homogenate is incubated for 60 minutes at 37° C. with 50 pM [^125 I]-angiotensin II (NEN, Dreieich, FRG) with increasing concentrations of the test substance in a total volume of 0.25 ml. Incubation is ended by rapid filtration through glass fibre filter mats. The filters are each washed with 4 ml of ice cold buffer (25 mMol Tris, 2.5 mMol MgCl2, 0.1% BSA, pH 7.40). The bound radioactivity is measured using a gamma-counter. The corresponding IC50 value is obtained from the dose-activity curve.
row,IC50,Structure (SMILES)
1,420 nM,"CCCc1cn2c(C(O)c3ccc(-c4ccccc4C(=O)O)cc3)ccc(C)c2n1 (racemic) [Substance D, (R,S)-2-n-Propyl-8-methyl-5-[α-(2'-carboxybiphenyl-4-yl)-α-hydroxy-methyl]imidazo[1,2-a]pyridine-hydrate]"
2,46 nM,"CCc1cn2c(C(O)c3ccc(-c4ccccc4C(=O)O)cc3)ccc(C)c2n1 (racemic) [Substance A, (R,S)-2-ethyl-8-methyl-5-[α-(2'-carboxybiphenyl-4-yl)-α-hydroxy-methyl]imidazo[1,2-a]pyridine]"
3,230 nM,"CCc1cn2c(C(OC(=O)NC3CCCCC3)c3ccc(-c4ccccc4C(=O)O)cc3)ccc(C)c2n1 (racemic) [Substance C, (R,S)-2-Ethyl-8-methyl-5-[α-(2'-carboxybiphenyl-4-yl)-α-cyclohexylaminocarbonyloxy-methyl]imidazo[1,2-a]pyridine]"

row,Structure (SMILES),IC50
1,"CCc1cn2c(C(OC(C)=O)c3ccc(-c4ccccc4C(=O)O)cc3)ccc(C)c2n1 (racemic) [Substance B, (R,S)-2-ethyl-8-methyl-5-[α-(2'-carboxybiphenyl-4-yl)-α-acetoxy-methyl]imidazo[1,2-a]pyridine]",30 nM
